This note sets out measurements from ChEMBL document CHEMBL1201862, “PubChem BioAssay data set” (2004).

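96-well plates; 48 h exposure; 5 concentrations. Endpoints by linear interpolation between flanking doses. Not reached: highest tested concentration assigned. Here, GI50 denotes the concentration required for 50% inhibition of growth.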 Activity calls are given as the source filed them. Rule as the data show it: active = GI50 up to about 1.1 µM and inactive = higher. Some results are limits rather than exact numbers.

Among the test systems are DU-145; Hs-578T; HT-29; OVCAR-8; SK-MEL-2; SW-620; SF-539; SF-295; SK-MEL-5; A549; OVCAR-5; NCI-H23; SK-MEL-28; M14; RPMI-8226; A498; NCI-H460; LOX IMVI; UACC-62.
Test in all cases: NCI anticancer screen, dose series, 48 h

Regarding `O=C1c2ccccc2C(=O)c2sc(Nc3cc(Cl)ccc3Cl)nc21`, the GI50 with DU-145 was 8.57 µM (inactive); in the assay on Hs-578T, 9.25 µM (inactive); in the assay on HT-29, 14.1 µM (inactive); in the assay on OVCAR-8 it was 3.77 µM (inactive); in the assay with SK-MEL-2 it was 11.4 µM (inactive); in the assay with SW-620, 2.94 µM (inactive). For the same compound, the GI50 in the assay with SF-539 was 3.16 µM (inactive); in the assay on SF-295, 4.03 µM (inactive); with SK-MEL-5, 1.53 µM (inactive); in the assay on A549 it was 16.4 µM (inactive); in the assay on OVCAR-5, 20.9 µM (inactive); with NCI-H23 it was 4.72 µM (inactive). For the same compound, the GI50 in the assay on SK-MEL-28 was 6.7 µM (inactive); in the assay with M14, 4.69 µM (inactive); in the assay on RPMI-8226, 3.22 µM (inactive); with A498 it was 21 µM (inactive); with NCI-H460, 6.68 µM (inactive); with LOX IMVI, 2.28 µM (inactive). The GI50 in the assay with UACC-62 was 2.49 µM (inactive).

`CCC(=O)Nc1ccc(N2C(=O)/C(=C/c3ccc(O)c(OC)c3)N=C2c2ccccc2)cc1`: the GI50 in the assay on DU-145 is 28.7 µM (inactive); with Hs-578T, 61.1 µM (inactive); in the assay with HT-29 it was 33.7 µM (inactive); in the assay with OVCAR-8, 44.5 µM (inactive); in the assay on SK-MEL-2, 23.6 µM (inactive); in the assay with SW-620 it was 51.2 µM (inactive). In addition, the GI50 is 84.1 µM (inactive) with SF-539; 19.9 µM (inactive) in the assay on SF-295; 14.3 µM (inactive) in the assay on SK-MEL-5; 21.3 µM (inactive) with A549; 40.8 µM (inactive) in the assay on OVCAR-5; 43.8 µM (inactive) with NCI-H23. Also, the GI50 with SK-MEL-28 was 25.6 µM (inactive); in the assay with M14 it was 19.7 µM (inactive); with RPMI-8226, 6.82 µM (inactive); in the assay with A498, 15.8 µM (inactive); with NCI-H460, 23.9 µM (inactive); in the assay with LOX IMVI, 36.7 µM (inactive). Also, the GI50 in the assay with UACC-62 is 26.4 µM (inactive).

`C=CCn1c(=O)c(C)cn(/C(=C/C(=O)OCC)C(=O)OCC)c1=O`: the GI50 was 40.7 µM (inactive) in the assay with DU-145; 24.5 µM (inactive) in the assay on Hs-578T; 12.9 µM (inactive) with HT-29; 17.6 µM (inactive) in the assay on OVCAR-8; 23.2 µM (inactive) with SK-MEL-2; 3.85 µM (inactive) in the assay with SW-620. In addition, the GI50 is 23.2 µM (inactive) in the assay on SF-539; > 84.1 µM (inactive) with SF-295; 18 µM (inactive) in the assay with SK-MEL-5; 30 µM (inactive) with A549; 16.4 µM (inactive) in the assay with OVCAR-5; 16.1 µM (inactive) in the assay on NCI-H23. The GI50 in the assay on SK-MEL-28 is 15.9 µM (inactive); in the assay with M14, 13.7 µM (inactive); in the assay on RPMI-8226, 14.6 µM (inactive); in the assay with A498, 22.1 µM (inactive); in the assay with NCI-H460, 25.4 µM (inactive); with LOX IMVI, 6.28 µM (inactive). The GI50 with UACC-62 was 16.5 µM (inactive).

Turning to `Cc1ccc(C(C)C)c(OCC(=O)N/N=C/c2c[nH]c3ccc(Br)cc23)c1`, the GI50 was 2.56 µM (inactive) with DU-145; 4.82 µM (inactive) in the assay on Hs-578T; 2.11 µM (inactive) with HT-29; 3.95 µM (inactive) with OVCAR-8; 2.44 µM (inactive) in the assay on SK-MEL-2; 3.61 µM (inactive) in the assay with SW-620. The GI50 with SF-539 is 1.72 µM (inactive); with SF-295 it was 2.45 µM (inactive); with SK-MEL-5 it was 1.38 µM (inactive); in the assay on A549, 3.1 µM (inactive); in the assay with OVCAR-5, 5.11 µM (inactive); in the assay with NCI-H23, 0.451 µM (active). For the same compound, the GI50 in the assay on SK-MEL-28 was 8.93 µM (inactive); in the assay on M14, 1.98 µM (inactive); in the assay with RPMI-8226, 2.47 µM (inactive); with A498, 4.09 µM (inactive); with NCI-H460, 2.17 µM (inactive); in the assay on LOX IMVI, 3.69 µM (inactive). The GI50 in the assay on UACC-62 is 2.29 µM (inactive).

`CC1(C)N=c2c(ncn2-c2ccccc2)=C(C(N)=O)N1`: the GI50 in the assay with DU-145, in the assay with Hs-578T, in the assay on HT-29, with OVCAR-8, with SK-MEL-2 and with SW-620 was > 100 µM (inactive) each time. In addition, the GI50 with SF-539, in the assay with SF-295, in the assay with SK-MEL-5, in the assay on A549, in the assay on OVCAR-5 and in the assay on NCI-H23 was > 100 µM (inactive) throughout. Also, the GI50 in the assay on SK-MEL-28, in the assay with M14, in the assay on RPMI-8226, in the assay with A498, with NCI-H460 and in the assay with LOX IMVI was > 100 µM (inactive) each time. In addition, the GI50 with UACC-62 was > 100 µM (inactive).

As to `CN(C)CCNC(=O)c1c(O)ccc2c1c1c(n2CCc2ccccc2)C(=O)c2ccccc2C1=O`, the GI50 was 4.57 µM (inactive) in the assay on DU-145; 9.73 µM (inactive) in the assay on Hs-578T; 6.82 µM (inactive) with HT-29; 8.36 µM (inactive) in the assay on OVCAR-8; 5.87 µM (inactive) in the assay with SK-MEL-2; 6.93 µM (inactive) with SW-620. Also, the GI50 in the assay on SF-539 is 5.37 µM (inactive); in the assay on SF-295, 4.06 µM (inactive); in the assay on SK-MEL-5, 2.96 µM (inactive); in the assay on A549, 8.53 µM (inactive); in the assay on OVCAR-5, 15.5 µM (inactive); in the assay on NCI-H23, 14.4 µM (inactive). Moreover, the GI50 is 1.98 µM (inactive) in the assay on SK-MEL-28; 1.93 µM (inactive) in the assay with M14; 2.75 µM (inactive) in the assay with RPMI-8226; 14.8 µM (inactive) in the assay with A498; 3.58 µM (inactive) in the assay with NCI-H460; 2.43 µM (inactive) in the assay on LOX IMVI. For the same compound, in the assay with UACC-62, the GI50 was 2.76 µM (inactive).

With `OC1(c2ccc(Cl)cc2)C(N2CCCC2)c2ccccc2C2=NCCN21` (configuration not stated), the GI50 in the assay with DU-145 is 32.4 µM (inactive); in the assay with Hs-578T, 29.9 µM (inactive); in the assay with HT-29, 7.13 µM (inactive); in the assay with OVCAR-8, 23.9 µM (inactive); in the assay with SK-MEL-2, 21.9 µM (inactive); with SW-620, 20.3 µM (inactive). Moreover, the GI50 is 18.5 µM (inactive) with SF-539; 13.6 µM (inactive) in the assay on SF-295; 15.1 µM (inactive) in the assay with SK-MEL-5; 39.9 µM (inactive) in the assay on A549; 43.7 µM (inactive) in the assay with OVCAR-5; 24.3 µM (inactive) in the assay with NCI-H23. Moreover, the GI50 in the assay with SK-MEL-28 was 13.9 µM (inactive); in the assay with M14, 15.8 µM (inactive); with RPMI-8226, 13 µM (inactive); in the assay with A498, 21.2 µM (inactive); with NCI-H460 it was 24.2 µM (inactive); in the assay on LOX IMVI, 18.1 µM (inactive). The GI50 with UACC-62 was 16.6 µM (inactive).

In the case of `C[C@H]1C/C=C/[C@H]2[C@@H]3O[C@]3(C)[C@@H](C)[C@H]3[C@H](Cc4ccccc4)NC(=O)[C@]32OC(=O)O/C=C/[C@@](C)(O)C1=O` [CYTOCHALASIN E], the GI50 is < 0.01 µM (active) in the assay on DU-145; 0.0171 µM (active) in the assay on Hs-578T; 0.0194 µM (active) in the assay on HT-29; 23.6 µM (inactive) with OVCAR-8; 0.393 µM (active) in the assay with SK-MEL-2; 21.8 µM (inactive) in the assay with SW-620. For the same compound, the GI50 in the assay with SF-539 was 0.0169 µM (active); with SK-MEL-5, 0.0211 µM (active); in the assay on A549, 0.0253 µM (active); in the assay with OVCAR-5, 11.3 µM (inactive); in the assay on NCI-H23, 0.197 µM (active); in the assay with SK-MEL-28 it was 0.2 µM (active). In addition, the GI50 in the assay with M14 was 0.0436 µM (active); in the assay on RPMI-8226 it was 0.556 µM (active); in the assay with A498 it was 0.0181 µM (active); in the assay with NCI-H460, 0.0161 µM (active); in the assay on LOX IMVI, 0.0128 µM (active); in the assay on UACC-62, 0.1 µM (active).

With `C=CCn1c(N)c(C#N)c(C#N)c1CCC`, the GI50 in the assay on DU-145, in the assay on Hs-578T, with HT-29, with OVCAR-8, in the assay with SK-MEL-2 and with SW-620 was > 100 µM (inactive) each time. For the same compound, the GI50 in the assay with SF-539, in the assay on SF-295, in the assay on SK-MEL-5, with A549, in the assay on OVCAR-5 and in the assay with NCI-H23 was > 100 µM (inactive) in each case. Besides, the GI50 in the assay with M14, in the assay with RPMI-8226, in the assay on A498, with LOX IMVI and in the assay with UACC-62 was > 100 µM (inactive) throughout.

As for `CC1CCCc2c(-c3ccc(Cl)cc3)nc(N)c(C#N)c21` (configuration not stated), the GI50 in the assay on DU-145 was 39 µM (inactive); with Hs-578T, 28.3 µM (inactive); with HT-29 it was 30.6 µM (inactive); with OVCAR-8 it was 24.6 µM (inactive); with SK-MEL-2, 18.4 µM (inactive); with SW-620, 61.9 µM (inactive). For the same compound, the GI50 in the assay on SF-539 is 25.5 µM (inactive); in the assay on SK-MEL-5, 18.3 µM (inactive); in the assay on OVCAR-5 it was 43 µM (inactive); in the assay on NCI-H23, 30.4 µM (inactive); in the assay on SK-MEL-28, 34.2 µM (inactive); with M14 it was 30 µM (inactive). Besides, the GI50 in the assay on RPMI-8226 is 13.5 µM (inactive); in the assay with A498, 28.4 µM (inactive); in the assay on NCI-H460, 33.1 µM (inactive); in the assay with LOX IMVI, 24.2 µM (inactive); in the assay with UACC-62, 18.9 µM (inactive).

As to `Cc1c(C)c2c(c(N)c1C#N)C(=O)N(OS(=O)(=O)c1ccccc1)C2=O`, the GI50 was 11.6 µM (inactive) in the assay on DU-145; 34.8 µM (inactive) in the assay on Hs-578T; 17.8 µM (inactive) in the assay on OVCAR-8; 49 µM (inactive) in the assay with SK-MEL-2; 20.8 µM (inactive) with SW-620; 16.6 µM (inactive) in the assay with SF-539. The GI50 in the assay with SF-295 was > 100 µM (inactive); in the assay with SK-MEL-5 it was 44.9 µM (inactive); with A549, 15.6 µM (inactive); in the assay with OVCAR-5 it was > 100 µM (inactive); in the assay with SK-MEL-28, 24.5 µM (inactive); in the assay with M14 it was 19.5 µM (inactive). Also, the GI50 in the assay on RPMI-8226 was 15.1 µM (inactive); in the assay with A498, > 100 µM (inactive); in the assay on NCI-H460 it was 37.5 µM (inactive); with LOX IMVI, 26.2 µM (inactive); with UACC-62, 23.9 µM (inactive).
